Assay results as given in patent EP0671947B1, “COMPOSITIONS FOR ELICITING CYTOTOXIC T-[…] AGAINST VIRUSES” (BOARD OF REGENTS THE UNIVERSITY OF TEXAS SYSTEM, priority 1991, dated 1993).
“And” between values parts separate entries of the source, which are not always exact repeats. Equal values may be shown once. “Also recorded” adds a separate entry of the source. Read-outs that look alike come from different tables or passages of the source. Ends that are not written are not given here.

Assays:
BALB/c mice = assay: ELISA for anti-peptide antibody response after immunization; settings: high molecular weight forms
[1] = type: in vivo, Balb/c mice
[2] = tested on: HIV-1 infected CCRF-CEM and uninfected Molt-4 cells; settings: cited from earlier work
PLN cells = assay: In vitro proliferation of PLN cells (3H-TdR incorporation) after footpad immunization; type: in vivo, B6C3 F1 mice; settings: disulfide (di-Cys) polymeric form; summary of mouse studies
Description: The high molecular weight, multimeric di-Cys peptide polymeric forms of the peptides described in EXAMPLE 1 were assayed for their elicitation of a T cell proliferative response as in Millich et al. (1985).
FIGURES 2-5 illustrate the peptide-specific ^3H-TdR incorporation for T cell responses (delta cpm) in mice with differing major histocompatibility (MHC) haplotypes, B6C3 F1 (C57B1/6xC^3H/HcJ) mice (FIGURES 2 and 4) and (A.SWxBALB/c) F1 mice (FIGURES 3 and 5), for all of the synthetic peptides. The ^3H-TdR incorporation values represent the difference between the radioactivity values obtained in wells containing antigen and in control wells without added antigen. The non-specific proliferation of PLN cells was determined by including an unrelated peptide in the assays, shown as a horizontal bar for each peptide.

PBMC = PBMC proliferation after immunization with a mixture of eight synthetic peptides; type: in vivo, rhesus monkeys; design: key to T-cell Proliferation Responses, Rhesus Monkey #7 / T-cell Proliferation Responses, Rhesus Monkey #23 / T-cell Proliferation Responses, Rhesus Monkey #283C: (-), no detectable response; (1+), poor response; (2+), good response; (3+), better response; (4+, 6+), best response; (4+, 6+), best response; settings: for T-cell Proliferation Responses, Rhesus Monkey #7 / T-cell Proliferation Responses, Rhesus Monkey #23 / T-cell Proliferation Responses, Rhesus Monkey #283C: PBMC response to the individual antigen after immunization with mixture of eight peptides; for proliferative responses of PBMCs (in words): three rhesus monkeys immunized with mixture of eight peptides
Description: In the present studies, three rhesus monkeys (#7, #23 and #283C) were immunized subcutaneously with 1 ml (0.1 ml/site) of a mixture of eight synthetic peptides (300 µg of each peptide in sterile water) emulsified in complete Freund's adjuvant at 1:1 ratio. […] At 3 and 7 weeks after the primary immunization, two booster injections of the peptide mixture (150 µg of each peptide in sterile water) emulsified in incomplete Freund's adjuvant were given to each monkey. Monkey #7 was terminated after 34 weeks, for health reasons unrelated to the study, while the remaining two monkeys (#283C and #23) received one additional booster injection at 25 weeks.
At two week intervals following the first immunization of each animal, 15 ml of whole heparinized blood was collected by venous puncture. The peripheral blood mononuclear cells (PBMC) were separated by standard ficoll-hypaque centrifugation and employed in proliferation assays. The PBMCs were monitored every two weeks for a period of 32 weeks for proliferative responses against individual peptides and recombinant gp160.

HIV-1 IIIB = assay: Effect of V3 loop peptides on HIV-1 IIIB infection of human cells (RT activity); type: cell-based; settings: for RT ACTIVITY (CPM): No Peptide 7528, Uninfected cells 558
Description: As detailed in TABLE 11A, these peptides include D23, D24, D25, D26, D30, D35, D38, D39, D40 and D44, which reflect a variety of strains such as mn, rf, wmj-3, sc, z6, eli, mn (y-l) and mn (y-p). However, it is important to note that this assay was confined specifically to inhibiting the infection of the heterologous strain HIV-1 IIIB. […]

HIV-1 [3] = type: cell-based, HIV-1 IIIB
[4] = tested on: envelope protein gp160 of HIV-1 IIIB, mn or rf strains; type: cell-based
3A9 = type: in vivo, Balb/c mice
HIV-1 [5] = type: cell-based; settings: seven days after infection
HIV-1 [6] = type: cell-based; settings: various concentrations, seven days after infection
HIV-1 [7] = type: cell-based; settings: various concentrations, seven days after infection; remark: listed apart in the source
[8] = 1 µg/ml, RT activity in culture supernatant after 9 days, IIIB strain

With CRIKQIINMWQGVGKAMYA [Peptide 65] the “anti-peptide antibody titers (in words)” value (BALB/c mice) was “high antibody titers”.
With CRIKQIINMWQGVGKAMYA [Peptide 122] the CTL-inducing activity ([1]; helper T-cell peptide injected alone) was “lacked CTL-inducing activity”.
In the case of “CTRPNNNTRKSIRIQRGPGRAFVTIGKIGNMRQAHC [reference compound]”, the “inhibition of syncytium formation” value ([2]; 100 µM (approximately 300 µg/ml)) is given as 30-60%.
With FEPIPIHYCAFPGF [Peptide 114] the “anti-peptide antibody titers (in words)” value (BALB/c mice) was “high antibody titers”.
In the case of FLGFLGAAGSTMGAASLTLTVQANQ [Peptide 63], the “T cell response directed against both the corresponding peptide and native gp160” value (from here on “T cell response directed”) (PLN cells) is reported as “strong T cell response”, the “T-cell Proliferation Responses, Rhesus Monkey #7” value (PBMC) is reported as 2+ and the “T-cell Proliferation Responses, Rhesus Monkey #23” value (PBMC) is reported as 4+. The “T-cell Proliferation Responses, Rhesus Monkey #283C” value (PBMC) was 3+, the “proliferative responses of PBMCs (in words)” value (“proliferative responses” below) (PBMC) was “good proliferative responses” and the “anti-peptide antibody titers (in words)” value (BALB/c mice) was “very low to negligible; also recorded: do not stimulate anti-peptide antibody production”.
With GIAIGPGRTLYAREK [Peptide D27] the “RT ACTIVITY (CPM)” value (HIV-1 IIIB) was 7657 CPM.
With GIHFGPGQALYTTGI [Peptide D33] the “RT ACTIVITY (CPM)” value (HIV-1 IIIB) was 8959 CPM.
In the case of GTGPCTNVSTVQC [Peptide 116], the “T-cell Proliferation Responses, Rhesus Monkey #7” value (PBMC) is reported as 1+, the “T-cell Proliferation Responses, Rhesus Monkey #23” value (PBMC) is reported as 3+ and the “T-cell Proliferation Responses, Rhesus Monkey #283C” value (PBMC) is reported as 2+. The “proliferative responses” value (PBMC) was “weak responses” and the “anti-peptide antibody titers (in words)” value (BALB/c mice) was “very low to negligible”.
For GVPVWKEATTLFC [Peptide 105], the “proliferative responses” value (PBMC) was “A significant response was not detected”.
With “HGEFAPGNYPALWSYA [Peptide B105, reference compound]” the “in vivo CTL response” value (P815; […], same immunization protocol) was “successfully generated”.
For HIGPGRAFYTTKN [Peptide H13N], the “inhibition of HIV-1 infection of primary human T cells” value (from here on “inhibition … of primary human T cells”) (HIV-1 [3]; [8]) was > 60% and the syncytia [4] was “no syncytia were observed”.
For KKFNGTGPCTN [Peptide 115], the “anti-peptide antibody titers (in words)” value (BALB/c mice) was “high antibody titers”.
For LWDQSLKPCVKLT [Peptide 111], the “T-cell Proliferation Responses, Rhesus Monkey #7” value (PBMC) was 3+, the “T-cell Proliferation Responses, Rhesus Monkey #23” value (PBMC) was 2+ and the “T-cell Proliferation Responses, Rhesus Monkey #283C” value (PBMC) was 3+. For the same sequence, the “proliferative responses” value (PBMC) was “good proliferative responses” and the “anti-peptide antibody titers (in words)” value (BALB/c mice) was “very low to negligible”.
For NNTRKSIRIQRGPGRAFVTIGKIG [Peptide N24G], the “inhibition … of primary human T cells” value (HIV-1 [3]; [8]) is listed as 92% and the “concentration required for inhibition of syncytium formation” value ([2]; to achieve the same level of inhibition (30-60%)) is listed as 300 µM.
For NNTRKSITKGPGRVIYATGQIIGD [Peptide D26], the “RT ACTIVITY (CPM)” value (HIV-1 IIIB) was 2093 CPM.
In the case of RIHIGPGARFLTTKN [Peptide D39], the “RT ACTIVITY (CPM)” value (HIV-1 IIIB) is reported as 1978 CPM.
For RIHIGPGRAFFTTKN [Peptide D40], the “RT ACTIVITY (CPM)” value (HIV-1 IIIB) was 2805 CPM.
With RIHIGPGRAFYTTKN [Peptide D24] the “RT ACTIVITY (CPM)” value (HIV-1 IIIB) was 5000 CPM.
For RIQRGPGRAFVTIGK [Peptide R15K], the “% Specific Lysis” value (3A9; mouse, in vivo) was 7.0% and 0.6% and 0% and 10.0% and 8.0%, the “time to CTL induction in the popliteal lymph node” value ([1]; mouse, in vivo) was ≤ 7 days and the “inhibition … of primary human T cells” value (HIV-1 [3]) was 92%. The “% RT INHIBITION” value (HIV-1 IIIB) was 73.2%, the “RT ACTIVITY (CPM)” value (HIV-1 IIIB) was 2021 CPM and the “HIV-1 infection of MT-4 cells, reverse transcriptase activity in culture medium” value (HIV-1 [5]) was “inhibits HIV-1 infection”. The “HIV-1 infection of CEM cells, reverse transcriptase activity in culture supernatant” value (HIV-1 [6]) was “inhibits HIV-1 infection”, the “HIV-1 infection of H9 cells, reverse transcriptase activity in culture supernatant” value (HIV-1 [7]) was “inhibits HIV-1 infection” and the syncytia [4] was “no syncytia were observed”. For the same sequence, the “proliferative responses” value (PBMC) was “A significant response was not detected”, the “cytotoxicity after pre-treatment of effector cells with anti-CD4 MAbs plus complement, or complement alone” value (P815; monomeric peptide) was “no significant effect” and the “Lysis of MHC-matched target cells without peptide pre-treatment (P815)” value (P815; mouse, in vivo) was “not observed”. The “cytotoxicity after treatment of CTL effectors with anti-CD8 MAbs and rabbit complement” value (P815; mouse, in vivo) was “abolished the cytotoxicity”, the “lysis of P815 cells infected with recombinant vaccinia virus expressing HIV gp160 (VPE16)” value (P815; mouse, in vivo) was “specifically lysed” and the “mice with CTLs specifically lysing P815 pre-incubated with the peptide” value (P815; mouse, in vivo) was 8 of 12 and 13 of 13 and 6 of 8. The “inhibitory activity retained, of control untreated peptide” value (bovine, fetal calf serum, 24 h) was 50% and the “time for which full strength inhibitory activity was retained” value (incubation in fetal calf serum at 37°C, tested at 1 µg/ml on MT-4 cells) was “up to 4 hours”.
With RTPTGLGQSLYTTRS [Peptide D38] the “RT ACTIVITY (CPM)” value (HIV-1 IIIB) was 5823 CPM.
For RVTLGPGRVWYTTGE [Peptide D29], the “RT ACTIVITY (CPM)” value (HIV-1 IIIB) was 13009 CPM.
For SIHIGPGRAFYATGD [Peptide D30], the “RT ACTIVITY (CPM)” value (HIV-1 IIIB) was 3443 CPM.
With SIRIGPGKVFTAKGG [Peptide D31] the “RT ACTIVITY (CPM)” value (HIV-1 IIIB) was 11877 CPM.
With SISIGPGRAFFATTD [Peptide D34] the “RT ACTIVITY (CPM)” value (HIV-1 IIIB) was 11142 CPM.
In the case of SITKGPGRVIYATGQ [Peptide D28], the “RT ACTIVITY (CPM)” value (HIV-1 IIIB) is reported as 7634 CPM.
With SIYIGPGRAFHTTGR [Peptide D32] the “RT ACTIVITY (CPM)” value (HIV-1 IIIB) was 8002 CPM.
For SLKPCVKLTPLC [Peptide 112], the “anti-peptide antibody titers (in words)” value (BALB/c mice) was “high antibody titers”.
With SLSIGPGRAPRTREI [Peptide D25] the “RT ACTIVITY (CPM)” value (HIV-1 IIIB) was 4342 CPM.
In the case of STPIGLGQALYTTRG [Peptide D35], the “RT ACTIVITY (CPM)” value (HIV-1 IIIB) is reported as 5242 CPM.
For STPIGLGQALYTTRI [Peptide D37], the “RT ACTIVITY (CPM)” value (HIV-1 IIIB) was 7027 CPM.
With SVITQACSKVSFE [Peptide 113] the “T cell response directed” value (PLN cells) was “strong T cell response”, the “T-cell Proliferation Responses, Rhesus Monkey #7” value (PBMC) was 1+ and the “T-cell Proliferation Responses, Rhesus Monkey #23” value (PBMC) was 2+. For the same sequence, the “T-cell Proliferation Responses, Rhesus Monkey #283C” value (PBMC) was 2+, the “proliferative responses” value (PBMC) was “weak responses” and the “anti-peptide antibody titers (in words)” value (BALB/c mice) was “very low to negligible; also recorded: do not stimulate anti-peptide antibody production”.
With TKGPGRVIYATGQ [Peptide T13Q] the “inhibition … of primary human T cells” value (HIV-1 [3]; [8]) was > 60% and the syncytia [4] was “no syncytia were observed”.
With “TYQRTRALVTG [Peptide B106, reference compound]” the “% Specific Lysis” value (3A9; effector cells: No Treatment, target 3A9 (H-2^k), E:T 80:1) was 0% and the “% Specific Lysis” value (3A9; effector cells: No Treatment, target 3A9 (H-2^k), E:T 160:1) was 0%.
In the case of VQCTHGIRPVVSTQ [Peptide 117], the “anti-peptide antibody titers (in words)” value (BALB/c mice) is reported as “high antibody titers”.
For VYYGVPVWKEA [Peptide 104], the “T cell response directed” value (PLN cells) was “strong T cell response”, the “T-cell Proliferation Responses, Rhesus Monkey #7” value (PBMC) was 4+ and the “T-cell Proliferation Responses, Rhesus Monkey #23” value (PBMC) was 2+. For the same sequence, the “T-cell Proliferation Responses, Rhesus Monkey #283C” value (PBMC) was 4+, the “proliferative responses” value (PBMC) was “good proliferative responses” and the “anti-peptide antibody titers (in words)” value (BALB/c mice) was “very low to negligible; also recorded: do not stimulate anti-peptide antibody production”.
In the case of YLRDQQLLGIWGC [Peptide 61], the “T cell response directed” value (PLN cells) is reported as “strong T cell response”, the “T-cell Proliferation Responses, Rhesus Monkey #23” value (PBMC) is reported as 3+ and the “T-cell Proliferation Responses, Rhesus Monkey #283C” value (PBMC) is reported as 2+. For the same sequence, the “proliferative responses” value (PBMC) was “Two of the three rhesus monkey-derived PBMC preparations also showed good proliferative responses” and the “anti-peptide antibody titers (in words)” value (BALB/c mice) was “very low to negligible; also recorded: do not stimulate anti-peptide antibody production”.
With YNKRKRIHIGPGRAFYTTKNNIGC [Peptide D23] the “RT ACTIVITY (CPM)” value (HIV-1 IIIB) was 94 CPM.
